Results as given in US20100267561A1, “HERBICIDAL PYRIDAZINONE DERIVATIVES” (priority 2007, published 2010).

Assays:
Assay in all cases: Test E pre-/postemergence plant response
Format in all cases: in vivo
Conditions in all cases: scale 0 to 100
[1] = tested on: bermudagrass (Cynodon dactylon)
Method in brief: (§1)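 Scores are visual estimates of control on a 0 to 100 scale, made against untreated plants 14 to 21 days after treatment in the greenhouse. Application was preemergence to sown seeds or postemergence to 2–18 cm plants (1- to 4-leaf stage), using a surfactant-containing non-phytotoxic solvent formulation.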

[2] = tested on: black mustard (Brassica nigra)
Method in brief: as §1

[3] = tested on: broadleaf signalgrass (Brachiaria platyphylla)
Method in brief: as §1

[4] = tested on: common mallow (Malva sylvestris)
Method in brief: as §1

[5] = tested on: common purslane (Portulaca oleracea)
Method in brief: as §1

[6] = tested on: dallisgrass (Paspalum dilatatum)
Method in brief: as §1

[7] = tested on: goosegrass (Eleusine indica)
Method in brief: as §1

[8] = tested on: green foxtail (Setaria viridis)
Method in brief: as §1

[9] = tested on: guineagrass (Panicum maximum)
Method in brief: as §1

[10] = tested on: itchgrass (Rottboellia cochinchinensis)
Method in brief: as §1

[11] = tested on: large crabgrass (Digitaria sanguinalis)
Method in brief: as §1

[12] = tested on: purple nutsedge (Cyperus rotundus)
Method in brief: as §1

[13] = tested on: quackgrass (Elytrigia repens)
Method in brief: as §1

[14] = tested on: surinam grass (Brachiaria decumbens)
Method in brief: as §1

Cn1ncc(O)c(-c2nn(-c3ccc(Cl)cc3)cc2Br)c1=O [Compound 31]
Plant response rating, Bermudagrass ([1]; 8 g ai/ha, Preemergence): 0
Plant response rating, Bermudagrass ([1]; 16 g ai/ha, Preemergence): 75
Plant response rating, Bermudagrass ([1]; 31 g ai/ha, Preemergence): 95
Plant response rating, Bermudagrass ([1]; 62 g ai/ha, Preemergence): 100
Plant response rating, Bermudagrass ([1]; Postemergence, 8 g ai/ha): 65
Plant response rating, Bermudagrass ([1]; Postemergence, 16 g ai/ha): 75
Plant response rating, Bermudagrass ([1]; Postemergence, 31 g ai/ha): 90
Plant response rating, Bermudagrass ([1]; Postemergence, 62 g ai/ha): 95
Plant response rating, Mustard, Black ([2]; 8 g ai/ha, Preemergence): 0
Plant response rating, Mustard, Black ([2]; 16 g ai/ha, Preemergence): 0
Plant response rating, Mustard, Black ([2]; 31 g ai/ha, Preemergence): 0
Plant response rating, Mustard, Black ([2]; 62 g ai/ha, Preemergence): 0
Plant response rating, Mustard, Black ([2]; Postemergence, 8 g ai/ha): 0
Plant response rating, Mustard, Black ([2]; Postemergence, 16 g ai/ha): 0
Plant response rating, Mustard, Black ([2]; Postemergence, 31 g ai/ha): 0
Plant response rating, Mustard, Black ([2]; Postemergence, 62 g ai/ha): 0
Plant response rating, Signalgrass ([3]; 16 g ai/ha, Preemergence): 15
Plant response rating, Signalgrass ([3]; 31 g ai/ha, Preemergence): 65
Plant response rating, Signalgrass ([3]; 62 g ai/ha, Preemergence): 80
Plant response rating, Signalgrass ([3]; Postemergence, 8 g ai/ha): 65
Plant response rating, Signalgrass ([3]; Postemergence, 16 g ai/ha): 65
Plant response rating, Signalgrass ([3]; Postemergence, 31 g ai/ha): 75
Plant response rating, Signalgrass ([3]; Postemergence, 62 g ai/ha): 75
Plant response rating, Mallow ([4]; 31 g ai/ha, Preemergence): 0
Plant response rating, Mallow ([4]; 62 g ai/ha, Preemergence): 0
Plant response rating, Mallow ([4]; Postemergence, 8 g ai/ha): 0
Plant response rating, Mallow ([4]; Postemergence, 16 g ai/ha): 0
Plant response rating, Mallow ([4]; Postemergence, 31 g ai/ha): 0
Plant response rating, Mallow ([4]; Postemergence, 62 g ai/ha): 0
Plant response rating, Purslane ([5]; 16 g ai/ha, Preemergence): 0
Plant response rating, Purslane ([5]; 31 g ai/ha, Preemergence): 0
Plant response rating, Purslane ([5]; 62 g ai/ha, Preemergence): 0
Plant response rating, Purslane ([5]; Postemergence, 8 g ai/ha): 0
Plant response rating, Purslane ([5]; Postemergence, 16 g ai/ha): 0
Plant response rating, Purslane ([5]; Postemergence, 31 g ai/ha): 0
Plant response rating, Purslane ([5]; Postemergence, 62 g ai/ha): 0
Plant response rating, Dallisgrass ([6]; 8 g ai/ha, Preemergence): 0
Plant response rating, Dallisgrass ([6]; 16 g ai/ha, Preemergence): 15
Plant response rating, Dallisgrass ([6]; 31 g ai/ha, Preemergence): 75
Plant response rating, Dallisgrass ([6]; 62 g ai/ha, Preemergence): 98
Plant response rating, Dallisgrass ([6]; Postemergence, 8 g ai/ha): 35
Plant response rating, Dallisgrass ([6]; Postemergence, 16 g ai/ha): 40
Plant response rating, Dallisgrass ([6]; Postemergence, 31 g ai/ha): 60
Plant response rating, Dallisgrass ([6]; Postemergence, 62 g ai/ha): 70
Plant response rating, Goosegrass ([7]; 8 g ai/ha, Preemergence): 20
Plant response rating, Goosegrass ([7]; 16 g ai/ha, Preemergence): 35
Plant response rating, Goosegrass ([7]; 31 g ai/ha, Preemergence): 100
Plant response rating, Goosegrass ([7]; 62 g ai/ha, Preemergence): 100
Plant response rating, Goosegrass ([7]; Postemergence, 8 g ai/ha): 35
Plant response rating, Goosegrass ([7]; Postemergence, 16 g ai/ha): 50
Plant response rating, Goosegrass ([7]; Postemergence, 31 g ai/ha): 70
Plant response rating, Goosegrass ([7]; Postemergence, 62 g ai/ha): 75
Plant response rating, Foxtail, Green ([8]; 8 g ai/ha, Preemergence): 0
Plant response rating, Foxtail, Green ([8]; 16 g ai/ha, Preemergence): 5
Plant response rating, Foxtail, Green ([8]; 31 g ai/ha, Preemergence): 60
Plant response rating, Foxtail, Green ([8]; 62 g ai/ha, Preemergence): 90
Plant response rating, Foxtail, Green ([8]; Postemergence, 8 g ai/ha): 50
Plant response rating, Foxtail, Green ([8]; Postemergence, 16 g ai/ha): 60
Plant response rating, Foxtail, Green ([8]; Postemergence, 31 g ai/ha): 70
Plant response rating, Foxtail, Green ([8]; Postemergence, 62 g ai/ha): 75
Plant response rating, Guineagrass ([9]; 16 g ai/ha, Preemergence): 90
Plant response rating, Guineagrass ([9]; 31 g ai/ha, Preemergence): 100
Plant response rating, Guineagrass ([9]; 62 g ai/ha, Preemergence): 100
Plant response rating, Guineagrass ([9]; Postemergence, 8 g ai/ha): 75
Plant response rating, Guineagrass ([9]; Postemergence, 16 g ai/ha): 80
Plant response rating, Guineagrass ([9]; Postemergence, 31 g ai/ha): 85
Plant response rating, Guineagrass ([9]; Postemergence, 62 g ai/ha): 90
Plant response rating, Itchgrass ([10]; 16 g ai/ha, Preemergence): 0
Plant response rating, Itchgrass ([10]; 31 g ai/ha, Preemergence): 75
Plant response rating, Itchgrass ([10]; 62 g ai/ha, Preemergence): 75
Plant response rating, Itchgrass ([10]; Postemergence, 8 g ai/ha): 50
Plant response rating, Itchgrass ([10]; Postemergence, 16 g ai/ha): 60
Plant response rating, Itchgrass ([10]; Postemergence, 31 g ai/ha): 65
Plant response rating, Itchgrass ([10]; Postemergence, 62 g ai/ha): 70
Plant response rating, Crabgrass, Large ([11]; 8 g ai/ha, Preemergence): 0
Plant response rating, Crabgrass, Large ([11]; 16 g ai/ha, Preemergence): 40
Plant response rating, Crabgrass, Large ([11]; 31 g ai/ha, Preemergence): 75
Plant response rating, Crabgrass, Large ([11]; 62 g ai/ha, Preemergence): 95
Plant response rating, Crabgrass, Large ([11]; Postemergence, 8 g ai/ha): 60
Plant response rating, Crabgrass, Large ([11]; Postemergence, 16 g ai/ha): 65
Plant response rating, Crabgrass, Large ([11]; Postemergence, 31 g ai/ha): 75
Plant response rating, Crabgrass, Large ([11]; Postemergence, 62 g ai/ha): 80
Plant response rating, Nutsedge, Purple ([12]; 16 g ai/ha, Preemergence): 0
Plant response rating, Nutsedge, Purple ([12]; 31 g ai/ha, Preemergence): 0
Plant response rating, Nutsedge, Purple ([12]; 62 g ai/ha, Preemergence): 0
Plant response rating, Nutsedge, Purple ([12]; Postemergence, 8 g ai/ha): 0
Plant response rating, Nutsedge, Purple ([12]; Postemergence, 16 g ai/ha): 0
Plant response rating, Nutsedge, Purple ([12]; Postemergence, 31 g ai/ha): 0
Plant response rating, Nutsedge, Purple ([12]; Postemergence, 62 g ai/ha): 0
Plant response rating, Quackgrass ([13]; 16 g ai/ha, Preemergence): 0
Plant response rating, Quackgrass ([13]; 31 g ai/ha, Preemergence): 20
Plant response rating, Quackgrass ([13]; 62 g ai/ha, Preemergence): 65
Plant response rating, Quackgrass ([13]; Postemergence, 8 g ai/ha): 0
Plant response rating, Quackgrass ([13]; Postemergence, 16 g ai/ha): 30
Plant response rating, Quackgrass ([13]; Postemergence, 31 g ai/ha): 30
Plant response rating, Quackgrass ([13]; Postemergence, 62 g ai/ha): 50
Plant response rating, Surinam Grass ([14]; 16 g ai/ha, Preemergence): 20
Plant response rating, Surinam Grass ([14]; 31 g ai/ha, Preemergence): 95
Plant response rating, Surinam Grass ([14]; 62 g ai/ha, Preemergence): 95
Plant response rating, Surinam Grass ([14]; Postemergence, 8 g ai/ha): 20
Plant response rating, Surinam Grass ([14]; Postemergence, 16 g ai/ha): 50
Plant response rating, Surinam Grass ([14]; Postemergence, 31 g ai/ha): 50
Plant response rating, Surinam Grass ([14]; Postemergence, 62 g ai/ha): 75
